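The compound was tested at five concentrations on cells cultured in 96-well plates, with a 48-hour exposure period. Abbreviation: GI50, concentration required for 50% inhibition of growth.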 Active and inactive are the calls of the source. Rule as the data show it: active = GI50 up to about 1.1 µM and inactive = higher.
What was measured:
Experiment in all cases: NCI tumour cell line growth inhibition, 48 h
[1] = test system: 786-0
[2] = test system: A498
[3] = test system: A549
[4] = test system: ACHN
[5] = test system: BT-549
[6] = test system: CAKI-1
[7] = test system: CCRF-CEM
[8] = test system: COLO 205
[9] = test system: DLD-1
[10] = test system: DMS-114
[11] = test system: DMS-273
[12] = test system: DU-145
[13] = test system: EKVX
[14] = test system: HCC 2998
[15] = test system: HCT-116
[16] = test system: HCT-15
[17] = test system: HL-60
[18] = test system: HOP-62
[19] = test system: HOP-92
[20] = test system: HT-29
[21] = test system: Hs-578T
[22] = test system: IGROV-1
[23] = test system: K562
[24] = test system: KM-20L2
[25] = test system: KM12
[26] = test system: LOX IMVI
[27] = test system: LXFL 529
[28] = test system: M14
[29] = test system: M19-MEL
[30] = test system: MCF7
[31] = test system: MDA-MB-231
[32] = test system: MDA-MB-435
[33] = test system: MDA-N
[34] = test system: MOLT-4
[35] = test system: Malme-3M
[36] = test system: NCI-H226
[37] = test system: NCI-H23
[38] = test system: NCI-H460
[39] = test system: NCI-H522
[40] = test system: NCI/ADR-RES
[41] = test system: OVCAR-3
[42] = test system: OVCAR-4
[43] = test system: OVCAR-5
[44] = test system: OVCAR-8
[45] = test system: PC-3
[46] = test system: RPMI-8226
[47] = test system: RXF 393
[48] = test system: SF-268
[49] = test system: SF-295
[50] = test system: SF-539
[51] = test system: SK-MEL-28
[52] = test system: SK-MEL-2
[53] = test system: SK-MEL-5
[54] = test system: SK-OV-3
[55] = test system: SN12C
[56] = test system: SNB-19
[57] = test system: SNB-75
[58] = test system: SR
[59] = test system: SW-620
[60] = test system: T47D
[61] = test system: TK-10
[62] = test system: U-251
[63] = test system: UACC-257
[64] = test system: UACC-62
[65] = test system: UO-31
[66] = test system: XF498
[67] = test system: HOP-18

Nc1ccn(C2OC(CO)C(O)C2O)c(=O)n1 (stereo not drawn)
GI50 [1]: 0.514 µM (active)
GI50 [2]: 18 µM (inactive)
GI50 [3]: 0.14 µM (active)
GI50 [4]: 0.277 µM (active)
GI50 [5]: 286 µM (inactive)
GI50 [6]: 1.04 µM (active)
GI50 [7]: 0.0527 µM (active)
GI50 [8]: 139 µM (inactive)
GI50 [9]: 481 µM (inactive)
GI50 [10]: 0.173 µM (active)
GI50 [11]: 1.74 µM (inactive)
GI50 [12]: 1.74 µM (inactive)
GI50 [13]: 267 µM (inactive)
GI50 [14]: 107 µM (inactive)
GI50 [15]: 0.207 µM (active)
GI50 [16]: 73.5 µM
GI50 [17]: 0.203 µM (active)
GI50 [18]: 0.213 µM (active)
GI50 [19]: 9.55 µM (inactive)
GI50 [20]: 112 µM (inactive)
GI50 [21]: > 481 µM (inactive)
GI50 [22]: 313 µM (inactive)
GI50 [23]: 14.6 µM (inactive)
GI50 [24]: 64 µM (inactive)
GI50 [25]: 468 µM (inactive)
GI50 [26]: 0.219 µM (active)
GI50 [27]: > 443 µM (inactive)
GI50 [28]: 0.186 µM (active)
GI50 [29]: 6.43 µM (inactive)
GI50 [30]: 0.156 µM (active)
GI50 [31]: 196 µM (inactive)
GI50 [32]: 35.4 µM (inactive)
GI50 [33]: 7.45 µM (inactive)
GI50 [34]: 0.0582 µM (active)
GI50 [35]: 13.8 µM (inactive)
GI50 [36]: 239 µM (inactive)
GI50 [37]: 0.248 µM (active)
GI50 [38]: 0.0885 µM (active)
GI50 [39]: 22.6 µM (inactive)
GI50 [40]: 1.16 µM (inactive)
GI50 [41]: 429 µM (inactive)
GI50 [42]: 457 µM (inactive)
GI50 [43]: 21.2 µM (inactive)
GI50 [44]: 0.818 µM (active)
GI50 [45]: 36.5 µM (inactive)
GI50 [46]: 337 µM (inactive)
GI50 [47]: 191 µM (inactive)
GI50 [48]: 3.15 µM (inactive)
GI50 [49]: 12.8 µM (inactive)
GI50 [50]: 30.8 µM (inactive)
GI50 [51]: 68.2 µM (inactive)
GI50 [52]: 457 µM (inactive)
GI50 [53]: 19.8 µM (inactive)
GI50 [54]: 198 µM (inactive)
GI50 [55]: 2.38 µM (inactive)
GI50 [56]: 7.98 µM (inactive)
GI50 [57]: 308 µM (inactive)
GI50 [58]: 0.23 µM (active)
GI50 [59]: 31.4 µM (inactive)
GI50 [60]: 330 µM (inactive)
GI50 [61]: 467 µM (inactive)
GI50 [62]: 8.89 µM (inactive)
GI50 [63]: 120 µM (inactive)
GI50 [64]: 1.08 µM (active)
GI50 [65]: 6.15 µM (inactive)
GI50 [66]: 434 µM (inactive)

C=C[C@@]1(O)CCCC2=C(C(=O)OCC)CC[C@]21C
GI50 [1]: > 100 µM (inactive)
GI50 [3]: > 100 µM (inactive)
GI50 [4]: > 100 µM (inactive)
GI50 [7]: 44.7 µM (inactive)
GI50 [8]: > 100 µM (inactive)
GI50 [9]: > 100 µM (inactive)
GI50 [10]: 44 µM (inactive)
GI50 [11]: 37.5 µM (inactive)
GI50 [13]: > 100 µM (inactive)
GI50 [14]: > 100 µM (inactive)
GI50 [16]: > 100 µM
GI50 [17]: 36.1 µM (inactive)
GI50 [67]: 99.8 µM (inactive)
GI50 [19]: > 100 µM (inactive)
GI50 [20]: 64.4 µM (inactive)
GI50 [22]: > 100 µM (inactive)
GI50 [23]: 30.8 µM (inactive)
GI50 [25]: > 100 µM (inactive)
GI50 [27]: > 100 µM (inactive)
GI50 [28]: 78.7 µM (inactive)
GI50 [29]: > 100 µM (inactive)
GI50 [34]: 26.1 µM (inactive)
GI50 [35]: > 100 µM (inactive)
GI50 [36]: > 100 µM (inactive)
GI50 [37]: > 100 µM (inactive)
GI50 [38]: > 100 µM (inactive)
GI50 [39]: > 100 µM (inactive)
GI50 [41]: > 100 µM (inactive)
GI50 [43]: > 100 µM (inactive)
GI50 [44]: > 100 µM (inactive)
GI50 [46]: > 100 µM (inactive)
GI50 [47]: > 100 µM (inactive)
GI50 [48]: > 100 µM (inactive)
GI50 [49]: > 100 µM (inactive)
GI50 [50]: > 100 µM (inactive)
GI50 [51]: > 100 µM (inactive)
GI50 [52]: 90.8 µM (inactive)
GI50 [53]: 38.1 µM (inactive)
GI50 [54]: > 100 µM (inactive)
GI50 [55]: > 100 µM (inactive)
GI50 [56]: 47.5 µM (inactive)
GI50 [58]: 54.1 µM (inactive)
GI50 [59]: 54.7 µM (inactive)
GI50 [61]: > 100 µM (inactive)
GI50 [62]: > 100 µM (inactive)
GI50 [63]: > 100 µM (inactive)
GI50 [65]: > 100 µM (inactive)
